Laboratory results published in ChEMBL document CHEMBL1201862, “PubChem BioAssay data set” (2004).
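Test compounds were applied to cells in 96-well plates for 48 hours at 5 doses. GI50 marks 50% less growth.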 The source made the active and inactive calls. Cut-off read from the data, not from the text of the source: active = GI50 up to about 1.1 µM and inactive = higher.

Columns and labels:
Assay in all cases: inhibition of tumour cell growth, NCI panel, 48 h
CAKI-1 = tested on: CAKI-1
HCC 2998 = tested on: HCC 2998
HCT-116 = tested on: HCT-116
HL-60 = tested on: HL-60
M14 = tested on: M14
Malme-3M = tested on: Malme-3M
NCI-H226 = tested on: NCI-H226
NCI-H522 = tested on: NCI-H522
SF-268 = tested on: SF-268
SK-MEL-28 = tested on: SK-MEL-28
SK-MEL-2 = tested on: SK-MEL-2
SK-MEL-5 = tested on: SK-MEL-5
SK-OV-3 = tested on: SK-OV-3
SNB-75 = tested on: SNB-75
U-251 = tested on: U-251
NCI/ADR-RES = tested on: NCI/ADR-RES
PC-3 = tested on: PC-3
T47D = tested on: T47D
MDA-N = tested on: MDA-N

Measured: GI50

O=[N+]([O-])c1ccc2c(c1)OCCOCCOc1ccc([N+](=O)[O-])cc1OCCOCCO2
inactive: CAKI-1 > 100 µM | HCC 2998 > 100 µM | HCT-116 > 100 µM | HL-60 > 100 µM | M14 > 100 µM | Malme-3M > 100 µM | NCI-H226 > 100 µM | NCI-H522 > 100 µM | SF-268 > 100 µM | SK-MEL-28 > 100 µM | SK-MEL-2 > 100 µM | SK-MEL-5 > 100 µM | SK-OV-3 > 100 µM | SNB-75 > 100 µM | U-251 > 100 µM

CC1(C)O[C@@H](CBr)C[C@H](C[C@H]2C[C@@H](O)C[C@@H](CCOCc3ccccc3)O2)O1
inactive: CAKI-1 27.8 µM | HCC 2998 24.6 µM | HCT-116 21.3 µM | M14 23.5 µM | Malme-3M 17.3 µM | NCI-H226 17.5 µM | NCI-H522 16.4 µM | NCI/ADR-RES 18.7 µM | PC-3 20.1 µM | SF-268 22 µM | SK-MEL-28 25.2 µM | SK-MEL-2 16.4 µM | SK-MEL-5 30.3 µM | SK-OV-3 18.1 µM | SNB-75 20.5 µM | T47D 14.9 µM | U-251 31.8 µM

O=C1NC(=S)N/C1=C/c1c(-c2ccccc2)[nH]c2ccccc12
inactive: CAKI-1 18.2 µM | HCC 2998 21.1 µM | HCT-116 14.3 µM | HL-60 7.31 µM | MDA-N 14.9 µM | Malme-3M 13.5 µM | NCI-H226 16.3 µM | NCI-H522 13.2 µM | NCI/ADR-RES 18.6 µM | PC-3 12.9 µM | SF-268 25.7 µM | SK-MEL-28 16.6 µM | SK-MEL-2 13.2 µM | SK-MEL-5 13 µM | SNB-75 15.3 µM | U-251 15.7 µM

O=C(NCCCCCCNC(=O)c1cccc2ccccc12)c1cccc2ccccc12
inactive: CAKI-1 21.3 µM | HCT-116 14.4 µM | HL-60 > 100 µM | M14 46.8 µM | Malme-3M 33.3 µM | NCI-H226 17.8 µM | NCI-H522 17.9 µM | SF-268 10.3 µM | SK-MEL-28 > 100 µM | SK-MEL-2 12.2 µM | SK-MEL-5 > 100 µM | SK-OV-3 21.2 µM | SNB-75 3.29 µM | U-251 18.3 µM

Cc1ccccc1NC(=O)CC(=O)n1nc(-c2ccccc2)c(/N=N/c2ccc([N+](=O)[O-])cc2)c1-c1ccccc1
inactive: CAKI-1 5.87 µM | HCC 2998 17.9 µM | HCT-116 14.4 µM | HL-60 19.9 µM | M14 16.7 µM | Malme-3M 23.8 µM | NCI-H226 14.1 µM | NCI-H522 18.9 µM | SF-268 21.2 µM | SK-MEL-28 27.3 µM | SK-MEL-2 25.3 µM | SK-MEL-5 13 µM | SK-OV-3 16.7 µM | SNB-75 19.2 µM | U-251 14.1 µM

O/N=C(/C(Cl)=C(Cl)Cl)C(Cl)Cl
inactive: CAKI-1 33.6 µM | HCC 2998 31.4 µM | HCT-116 17.9 µM | HL-60 8.28 µM | M14 20.2 µM | MDA-N 17 µM | Malme-3M 28.8 µM | NCI-H226 31 µM | NCI/ADR-RES 32.2 µM | PC-3 17.3 µM | SF-268 17 µM | SK-MEL-28 15.2 µM | SK-MEL-5 19.5 µM | SK-OV-3 28.8 µM | SNB-75 19 µM | U-251 19.5 µM

NC(Cc1ccccc1)C(=O)OCN1C(=O)C2C3C=CC(C2C1=O)C1C2C(=O)N(COC(=O)C(N)Cc4ccccc4)C(=O)C2C31 (stereo not drawn)
inactive: HCT-116 23 µM | HL-60 32.2 µM | M14 19.5 µM | NCI-H226 27.7 µM | SF-268 17.4 µM | SK-MEL-28 18.6 µM | SK-MEL-5 18.2 µM | SK-OV-3 27.9 µM | SNB-75 26.2 µM | U-251 17.3 µM

CCOC(=O)CCC(NC(=O)c1ccc(Nc2nc3cc(C(F)(F)F)ccc3nc2-c2ccccc2)cc1)C(=O)OCC (stereo not drawn)
inactive: CAKI-1 20.5 µM | HCC 2998 24.3 µM | HCT-116 26.4 µM | HL-60 36.1 µM | M14 > 100 µM | Malme-3M 28.2 µM | NCI-H226 20.7 µM | NCI/ADR-RES 19.5 µM | PC-3 > 100 µM | SF-268 22.3 µM | SK-MEL-28 26.5 µM | SK-MEL-2 > 100 µM | SK-MEL-5 18.6 µM | SK-OV-3 30.5 µM | SNB-75 15.2 µM | T47D 16.4 µM | U-251 25.3 µM

Cc1cc(Br)c(O)c(-c2cscn2)c1
inactive: CAKI-1 24.2 µM | HCC 2998 19 µM | HCT-116 12.6 µM | HL-60 3.66 µM | M14 23.6 µM | Malme-3M 21.8 µM | NCI/ADR-RES 24 µM | PC-3 10.3 µM | SK-MEL-2 19.3 µM | SK-MEL-5 16.8 µM | SK-OV-3 54.6 µM

COc1cc2nc(-c3cccs3)nc(Cl)c2cc1OC
inactive: CAKI-1 80.2 µM | HCT-116 > 100 µM | HL-60 > 100 µM | M14 > 100 µM | Malme-3M > 100 µM | NCI-H226 > 100 µM | NCI-H522 > 100 µM | NCI/ADR-RES > 100 µM | PC-3 > 100 µM | SF-268 > 100 µM | SK-MEL-28 > 100 µM | SK-MEL-2 > 100 µM | SK-MEL-5 12 µM | SK-OV-3 > 100 µM | SNB-75 > 100 µM | T47D > 100 µM | U-251 > 100 µM
